In US11505558B1, “Antiviral heterocyclic compounds” (Enanta Pharmaceuticals, Inc., priority 2019, dated 2022):

Test system: genotype A, "Long" strain RSV
Test: RSV-A assay (CPE, ATPlite readout in Hep-2 cells)
Assay type: cell-based
Details: human respiratory syncytial virus, HEp-2, Hep-2 cells, genotype A "Long" strain RSV, MOI 0.1; read-out: Human RSV-A (“Long” strain) EC50
Outline: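 Hep-2 cells (8,000/well) received 2-fold serial compound dilutions in duplicate and RSV Long strain at MOI 0.1. After 5 days' incubation, cell health was read as ATP by ATPlite luminescence, with virus-only and uninfected controls defining max and minimum CPE; EC50 reported.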

Row | Compound | EC50 [nM]
1 | C[C@]1(C(N)=O)COc2c1cc([C@@](O)(CNC(=O)c1cncc(C(N)=O)c1)C(F)(F)F)nc2-c1ccc(F)cc1 [Example 296] | > 200
2 | Cn1nnc2cc(C(=O)NC[C@](O)(c3cc4c(c(-c5ccc(F)cc5)n3)OC[C@]4(C)C(N)=O)C(F)(F)F)ccc21 [Example 315] | > 200
3 | C[C@]1(C(N)=O)COc2c1cc([C@@](O)(CNC(=O)c1ccc3cccnc3c1)C(F)(F)F)nc2-c1ccc(F)cc1 [Example 233] | > 200
4 | CC(=O)NCCNC(=O)[C@@]1(C)COc2c1cc([C@@](O)(CNC(=O)c1cc(OC3CC3)c3ncccc3c1)C(F)(F)F)nc2-c1ccc(F)cc1 [Example 454] | > 200
5 | C[C@]1(C(N)=O)COc2c1cc([C@@](O)(CNC(=O)c1ccc(-c3cncc(C(F)(F)F)c3)c(OC3CC3)c1)C(F)(F)F)nc2-c1ccc(F)cc1 [Example 143] | > 200
6 | COc1cc(C(=O)NC[C@](O)(c2cc3c(c(-c4ccc(F)cc4)n2)OC[C@]3(C)C(=O)NC2CCCC2)C(F)(F)F)cc2cccnc12 [Example 47] | > 200
7 | C[C@]1(C(N)=O)COc2c1cc([C@@](O)(CNC(=O)c1ccc(OC3CC3)c(-c3cnccc3C(F)(F)F)c1)C(F)(F)F)nc2-c1ccc(F)cc1 [Example 139] | > 200
8 | C[C@]1(C(N)=O)COc2c1cc([C@@](O)(CNC(=O)c1cc(OCCNC(N)=O)c3ncccc3c1)C(F)(F)F)nc2-c1ccc(F)cc1 [Example 359] | > 200
9 | C[C@]1(C(N)=O)COc2c1cc([C@@](O)(CNC(=O)c1ccnc(C(F)(F)F)n1)C(F)(F)F)nc2-c1ccc(F)cc1 [Example 301] | > 200
10 | C[C@]1(C(N)=O)COc2c1cc([C@@](O)(CNC(=O)c1cc(-c3ncccn3)c3ncccc3c1)C(F)(F)F)nc2-c1ccc(F)cc1 [Example 354] | > 200
11 | C[C@]1(C(=O)N2CC[C@@H](O)C2)COc2c1cc([C@@](O)(CNC(=O)c1cc(OC3CC3)c3ncccc3c1)C(F)(F)F)nc2-c1ccc(F)cc1 [Example 468] | > 200
12 | Cn1cnc2ccc(C(=O)NC[C@](O)(c3cc4c(c(-c5ccc(F)cc5)n3)OC[C@]4(C)C(N)=O)C(F)(F)F)cc21 [Example 334] | > 200
13 | COc1cc(C(=O)NC[C@](O)(c2cc3c(c(-c4ccc(F)cc4)n2)OC[C@]3(C)C(N)=O)C(F)(F)F)cc2ccc(C(F)(F)F)nc12 [Example 224] | > 200
14 | C[C@]1(C(N)=O)COc2c1cc([C@@](O)(CNC(=O)c1cc(OCC(=O)NC3CC3)c3ncccc3c1)C(F)(F)F)nc2-c1ccc(F)cc1 [Example 376] | > 200
15 | COc1cccc2cc(C(=O)NC[C@](O)(c3cc4c(c(-c5ccc(F)cc5)n3)OC[C@]4(C)C(N)=O)C(F)(F)F)[nH]c12 [Example 603] | > 200
16 | C[C@]1(C(N)=O)COc2c1cc([C@@](O)(CNC(=O)c1cnc3cccnc3c1)C(F)(F)F)nc2-c1ccc(F)cc1 [Example 242] | > 200
17 | COc1cc(C(=O)NC[C@](O)(c2cc3c(c(-c4ccc(F)cc4)n2)OC[C@]3(C)C(N)=O)C(F)(F)F)ccc1-c1cnco1 [Example 187] | < 200
18 | CNC(=O)NCCNC(=O)[C@@]1(C)COc2c1cc([C@@](O)(CNC(=O)c1cc(OC3CC3)c3ncccc3c1)C(F)(F)F)nc2-c1ccc(F)cc1 [Example 461] | > 200
19 | COc1cc(C(=O)NC[C@](O)(c2cc3c(c(-c4ccc(F)cc4)n2)OC[C@]3(C)C(N)=O)C(F)(F)F)ccc1-c1cocn1 [Example 199] | < 200
20 | C[C@]1(C(N)=O)COc2c1cc([C@@](O)(CNC(=O)c1cc(NC(=O)N3CCC3)c3ncccc3c1)C(F)(F)F)nc2-c1ccc(F)cc1 [Example 410] | < 200
21 | COc1cncc(C(=O)NC[C@](O)(c2cc3c(c(-c4ccc(F)cc4)n2)OC[C@]3(C)C(N)=O)C(F)(F)F)c1 [Example 305] | > 200
22 | Cc1ccnc2c(O)cc(C(=O)NC[C@](O)(c3cc4c(c(-c5ccc(F)cc5)n3)OC[C@]4(C)C(N)=O)C(F)(F)F)cc12 [Example 250] | > 200
23 | COc1cc(C(=O)NC[C@](O)(c2cc3c(c(-c4ccc(F)cc4)n2)OC[C@]3(C)CNC2CC2)C(F)(F)F)ccc1OCCO [Example 3] | < 200
24 | Cc1cccc(-c2ccc(C(=O)NC[C@](O)(c3cc4c(c(-c5ccc(F)cc5)n3)OC[C@]4(C)C(N)=O)C(F)(F)F)cc2OC2CC2)n1 [Example 158] | > 200

Second part, the compound after the results:

Row | EC50 [nM] | Compound
25 | < 200 | CN(C)c1nc2ccc(C(=O)NC[C@](O)(c3cc4c(c(-c5ccc(F)cc5)n3)OC[C@]4(C)C(N)=O)C(F)(F)F)cc2s1 [Example 438]
26 | < 200 | C[C@]1(C(N)=O)COc2c1cc([C@@](O)(CNC(=O)c1cc(OC3CC3)c3ncccc3c1)C(F)(F)F)nc2-c1ccc(Cl)c(F)c1 [Example 282]
27 | < 200 | COc1cc(C(=O)NC[C@](O)(c2cc3c(c(-c4ccc(F)cc4)n2)OC[C@]3(C)C(=O)NCC2CC2)C(F)(F)F)cc2cccnc12 [Example 50]
28 | < 200 | C[C@]1(C(N)=O)COc2c1cc([C@@](O)(CNC(=O)c1ccc3nc(C(F)(F)F)sc3c1)C(F)(F)F)nc2-c1ccc(F)cc1 [Example 314]
29 | < 200 | C[C@]1(C(N)=O)COc2c1cc([C@@](O)(CNC(=O)c1cc(F)c3nc(N)sc3c1)C(F)(F)F)nc2-c1ccc(F)cc1 [Example 443]
30 | < 200 | C[C@]1(C(N)=O)COc2c1cc([C@@](O)(CNC(=O)c1cc(NC(=O)NC3CC3)c3ncccc3c1)C(F)(F)F)nc2-c1ccc(F)cc1 [Example 415]
31 | < 200 | C[C@]1(C(N)=O)COc2c1cc([C@@](O)(CNC(=O)c1cc(Nc3ccnnc3)c3ncccc3c1)C(F)(F)F)nc2-c1ccc(F)cc1 [Example 348]
32 | < 200 | C[C@]1(C(N)=O)COc2c1cc([C@@](O)(CNC(=O)c1cc3c(F)cc(F)cc3[nH]1)C(F)(F)F)nc2-c1ccc(F)cc1 [Example 596]
33 | < 200 | COc1cc(C(=O)NC[C@](O)(c2cc3c(c(-c4ccc(F)cc4)n2)OC[C@]3(C)C(N)=O)C(F)(F)F)cc2cc(Br)cnc12 [Example 618]
34 | < 200 | Cc1cc2cc(C(=O)NC[C@](O)(c3cc4c(c(-c5ccc(F)cc5)n3)OC[C@]4(C)C(N)=O)C(F)(F)F)cc(NC(=O)NCC(C)(C)O)c2nc1C [Example 661]
35 | < 200 | COc1nc2ccc(C(=O)NC[C@](O)(c3cc4c(c(-c5ccc(F)cc5)n3)OC[C@]4(C)C(N)=O)C(F)(F)F)cc2s1 [Example 312]
36 | < 200 | CC(C)(O)C(F)(F)CNC(=O)[C@@]1(C)COc2c1cc([C@@](O)(CNC(=O)c1cc(OC3CC3)c3ncccc3c1)C(F)(F)F)nc2-c1ccc(F)cc1 [Example 488]
37 | < 200 | COc1cc(C(=O)NC[C@](O)(c2cc3c(c(-c4ccc(F)cc4)n2)OC[C@]3(C)C(N)=O)C(F)(F)F)ccc1OC(F)F [Example 67]
38 | < 200 | COc1cc(OC)c2cc(C(=O)NC[C@](O)(c3cc4c(c(-c5ccc(F)cc5)n3)OC[C@]4(C)C(N)=O)C(F)(F)F)[nH]c2c1 [Example 332]
39 | < 200 | COc1cc(C(=O)NC[C@](O)(c2cc3c(c(-c4ccc(F)cc4)n2)OC[C@]3(C)C(N)=O)C2CC2)cc2cccnc12 [Example 249]
40 | < 200 | Cc1cnc2c(OC3CC3)cc(C(=O)NC[C@](O)(c3cc4c(c(-c5ccc(F)cc5)n3)OC[C@]4(C)C(=O)NCC(C)(C)O)C(F)(F)F)cc2c1 [Example 499]
41 | < 200 | CCn1cc2cc(C(=O)NC[C@](O)(c3cc4c(c(-c5ccc(F)cc5)n3)OC[C@]4(C)C(N)=O)C(F)(F)F)ccc2n1 [Example 655]
